Reference: article PMC6325233, “A Novel Actin Binding Drug with In Vivo Efficacy” (Antimicrobial Agents and Chemotherapy, 2018)
“Also recorded” adds a separate entry of the source.

What was measured:
[1] = test system: Trichophyton rubrum 11199; test: MIC susceptibility testing (terbinafine-resistant strain); type: cell-based; settings: CLSI M38-A2; 96 hours
Experimental: (§1) Occidiofungin was purified from a liquid culture of Burkholderia contaminans MS14 as previously described ([21]). MIC susceptibility testing was performed according to the CLSI M27-A3 and M38-A2 standards for the susceptibility testing of yeasts and filamentous fungi, respectively. S. cerevisiae deletion mutants were obtained from the commercially available BY4741 deletion library (Thermo Scientific).

Candida auris MRL# 35646 = test: MIC susceptibility testing; type: cell-based; settings: CLSI M27-A3; 24 hours
Experimental: as §1

Candida auris MRL# 35651 = test: MIC susceptibility testing; type: cell-based; settings: CLSI M27-A3; 24 hours
Experimental: as §1

Candida krusei 28570 = test: MIC susceptibility testing; type: cell-based; settings: CLSI M27-A3
Experimental: as §1

[2] = test system: Trichophyton rubrum 28658; test: MIC susceptibility testing; type: cell-based; settings: CLSI M38-A2; 96 hours
Experimental: as §1

S. cerevisiae Δbnr1 = test: MIC against deletion mutant; type: cell-based; settings: Actin nucleation, Formin
Experimental: as §1

S. cerevisiae Δrom1 = test: MIC against deletion mutant; type: cell-based; settings: Rho1-GEF
Experimental: as §1

S. cerevisiae Δsac7 = test: MIC against deletion mutant; type: cell-based; settings: Rho1-GAP
Experimental: as §1

S. cerevisiae Δtus1 = test: MIC against deletion mutant; type: cell-based; settings: Rho1p GEF
Experimental: as §1

S. pombe = test: FM-464 uptake (endocytosis) assay; type: cell-based; settings: 0.5 μg/ml (0.5× MIC) and 1 μg/ml (1× MIC), 30 min, 30°C
Experimental: The hyphal induction assay was performed as previously reported with minor modifications ([58]). Candida albicans strain ATCC 66027 was grown in yeast extract-peptone-dextrose (YPD) medium at 30°C for 48 h to reach saturation with an OD600 of 17 to 19. Cells were diluted into fresh Spider medium (1% nutrient broth, 1% mannitol, 0.2% K2HPO4) to obtain an OD600 of 0.05 (∼0.5 × 10^6 to 1 × 10^6 cells/ml) and incubated at 37°C with shaking to induce hyphal formation. Immediately prior to the 37°C incubation, occidiofungin (1 µg/ml; 0.5× MIC) or an equal volume of DMSO was added to the cultures. Aliquots were removed at 0-, 1-, 2-, 4-, and 6-h time points and fixed in 3.7% formaldehyde for later analysis of cell morphology by light microscopy. More than 200 cells were examined for each time point, and cells were scored as having either a yeast or filamentous form, with cells showing any outgrowth considered filamentous. DNA segregation assays were performed using a mid-log culture of S. cerevisiae (BY4743, diploid) and C. albicans (ATCC 66027). The cultures were diluted in fresh YPD medium to obtain OD600s of 0.095 (∼1 × 10^6 to 1.5 × 10^6 cells/ml) and 0.05 (0.5 × 10^6 to 0.8 × 10^6 cells/ml), respectively. […] Images were viewed using a Nikon 50i fluorescence microscope with a 100× oil immersion objective and DAPI filter. Cells were scored on the basis of bud morphology and DNA location. […]

[3] = Murine model of vulvovaginal candidiasis, tolerability; type: in vivo, BALB/c mice
Experimental: The murine model of vulvovaginal candidiasis has been reported ([59]). A variation of this method was used. Three groups of six mice were used to evaluate two concentrations of occidiofungin (100 μg and 50 μg) and vehicle control (0.3% Noble agar). Briefly, 6- to 8-week-old BALB/c mice were treated subcutaneously with 200 ng per mouse of β-estradiol 17-valerate 3 days prior to inoculation with C. albicans (day −3). A subcutaneous dose of estradiol was administered every 3 days (day 0 [D0] and D3) until the end of the experiment to induce pseudoestrus. Intravaginal inoculations of approximately 20 μl of 2.5 × 10^6 CFU/ml of C. albicans were performed on D0 of the VVC study. On the same day of inoculation (D0), another subcutaneous injection of estradiol was made. A lyophilized powder of occidiofungin containing either 100 μg or 50 μg of occidiofungin was suspended in 20 μl of warm 0.3% Noble agar before the intravaginal inoculations. Drug treatments were performed on D2, D3, and D4 of the study. On day 5 (D5), the vaginal lumen was lavaged with 100 μl of sterile PBS with a 200-µl pipette tip. Serial dilutions and total CFU per vaginal lavage were determined by plating on YPD plates containing 50 μg/ml of chloramphenicol. Body weights, signs of vaginal irritation such as swelling or bleeding, and clinical signs of discomfort (stereotypical stretching behavior) were monitored. Statistical analyses (t tests) were performed to compare the control group to the treated groups and to compare differences between treated groups. All the analyses were 2 sided, with a P value of <0.05 considered statistically significant.

[4] = test system: clinically relevant fungi; test: Spectrum of antifungal activity (summary); type: cell-based
Experimental: as §1

[5] = intravaginal 100 and 50 µg, once per day for 3 days

occidiofungin
MIC, 80% inhibition [1]: 1 µg/mL
MIC, 100% inhibition [1]: 2 µg/mL
MIC, 50% inhibition (Candida auris MRL# 35646): 0.125 µg/mL
MIC, 100% inhibition (Candida auris MRL# 35646): 0.25 µg/mL
MIC, 50% inhibition (Candida auris MRL# 35651): 0.125 µg/mL
MIC, 100% inhibition (Candida auris MRL# 35651): 0.25 µg/mL
MIC, 50% inhibition (Candida krusei 28570; 24 hours): 4 µg/mL
MIC, 100% inhibition (Candida krusei 28570; 24 hours): 8 µg/mL
MIC, 50% inhibition (Candida krusei 28570; 48 hours): 4 µg/mL
MIC, 100% inhibition (Candida krusei 28570; 48 hours): 8 µg/mL
MIC, 80% inhibition [2]: 1 µg/mL
MIC, 100% inhibition [2]: 2 µg/mL
MIC (S. cerevisiae Δbnr1): 0.25 µg/mL
MIC (S. cerevisiae Δrom1): 0.25 µg/mL
MIC (S. cerevisiae Δsac7): 0.25 µg/mL
MIC (S. cerevisiae Δtus1): 0.25 µg/mL
effect on endocytosis (FM-464-stained vesicles) (S. pombe): concentration-dependent reductions in stained endocytic vesicles; also recorded: decreased in a dose-dependent fashion
behavioral changes (sluggishness, stretching, reluctance to consume food) [3, 5]: No behavioral changes
vaginal bleeding or swelling [3, 5]: no vaginal bleeding or swelling was observed
signs of toxicity ([3]; treatment of murine vulvovaginal candidiasis): without any signs of toxicity
activity against filamentous fungi ([4]; Aspergillus, Mucor, Fusarium, Rhizopus, and azole- and terbinafine-resistant Trichophyton): active
activity against fluconazole- and caspofungin-resistant Candida ([4]; Candida albicans, Candida glabrata, Candida parapsilosis resistant to fluconazole and caspofungin): sensitive to occidiofungin
activity against caspofungin-resistant strains ([4]; Candida parapsilosis and C. neoformans resistant to caspofungin): susceptible to treatment with occidiofungin
activity against C. auris ([4]; strains of C. auris): sensitive to occidiofungin at submicromolar concentrations
activity against filamentous and nonfilamentous fungi ([4]; summary of Table S1): low micromolar inhibitory activity; also recorded: activity against filamentous and nonfilamentous fungi at submicromolar concentrations
spectrum of activities vs other clinically available antifungals ([4]; summary of Table S1): broader spectrum of activities
